Molecules are shown by their SMILES. Read-outs that look alike come from different tables or passages of the source.

The term IC90 denotes the point of the concentration-response curve where the effect stands at 90%.

For one test, the system named is HIV-1 (RF) in MT-2 cells. The experiment in a line: microbe, parasite or virus in culture. In kind it is cell-based. Put shortly: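 HIV-1 laboratory strains (RF, MN, IIIB) grown in H9 cells in RPMI 1640 with 5% FCS; infections in MT-2 cells. Viral RNA quantified by hybridization with biotinylated gag/pol capture probes on streptavidin plates and alkaline phosphatase-conjugated reporter probes; BH10 gag-pol in vitro transcripts serve as RNA standards.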

Test [1] addresses single-chain tethered dimer of HIV protease (Human immunodeficiency virus 1, UniProt P04585). The experiment in a line: biochemical. In kind it is biochemical. The arrangement: fused on or other part: A second copy of the same protease unit is joined to the first by a short peptide tether, giving one polypeptide.
The mark [2] stands for this setting: Human immunodeficiency virus 1, MT2, 48 h, Table 2d, class symbols, read-out: IC90.
Where [3] appears, read: read-out: HPLC K1, Table 2d, class symbols.
Where [4] appears, read: Human immunodeficiency virus 1, MT2, 48 h, Table 2d, HIV RNA assay, read-out: IC90.
Where [5] appears, read: read-out: HPLC K1, Table 2d, HIV protease inhibition, HPLC method.
The mark [6] stands for this setting: Table 2d, class symbols, read-out: HPLC K1.
[7] abbreviates: Table 2d, HIV protease inhibition, HPLC method, read-out: HPLC K1.

`Nc1cccc(CN2C(=O)N(Cc3ccc4ccccc4c3)C(Cc3ccccc3)C(O)C(O)C2Cc2ccccc2)c1` (stereo not drawn) [15WU]: the IC90 with HIV-1 (RF) in MT-2 cells (setting [2]) is < 10 µg/mL. Moreover, the Ki in test [1] (setting [3]) was < 10 nM.

In the case of `O=S1(=O)N(CCCCCO)C(Cc2ccccc2)C(O)C(O)C(Cc2ccccc2)N1Cc1ccc2ccccc2c1` (stereo not drawn) [23AF], the IC90 result in the test on HIV-1 (RF) in MT-2 cells (Table 2m) was “+++ (+++=<10 μg/mL)”. Also, the Ki in test [1] (Table 2m, read-out: HPLC Ki) is < 10 nM.

For `CC(C)(C)C(=O)c1cccc(CN2C(=O)N(Cc3cccc(C(=O)C(C)(C)C)c3)C(Cc3ccccc3)C(O)C(O)C2Cc2ccccc2)c1` (stereo not drawn) [Example 15XH], the IC90 in the test with HIV-1 (RF) in MT-2 cells (setting [4]) is < 10 µg/mL. Also, the Ki in test [1] (setting [5]) is < 10 nM.

For `C=CCN1C(=O)N(CC=C)C(Cc2ccccc2)C(O)C(O)C1Cc1ccccc1` (stereo not drawn) [Example 13K], the IC90 result in the test on HIV-1 (RF) in MT-2 cells (Table 2d, class symbols) is “+++ (+++=<10 μg/mL)”. Moreover, the Ki in test [1] (setting [6]) is < 10 nM.

Turning to `Cc1ccc(S(=O)(=O)NN=Cc2cccc(CN3C(=O)N(Cc4cccc(C=NNS(=O)(=O)c5ccc(C)cc5)c4)C(Cc4ccccc4)C(O)C(O)C3Cc3ccccc3)c2)cc1` (stereo not drawn) [Example 15YF], the concentration for an effect of 90% (IC90) with HIV-1 (RF) in MT-2 cells (setting [4]) was < 10 µg/mL. In addition, the Ki in test [1] (setting [5]) lay within 10 to 1000 nM.

Regarding `O=C1N(CCCCCO)C(Cc2ccccc2)C(O)C(O)C(Cc2ccccc2)N1CCCCCO` (stereo not drawn) [Example 13H], in the test on HIV-1 (RF) in MT-2 cells (setting [2]), the IC90 is < 10 µg/mL. In addition, the Ki in test [1] (setting [3]) is < 10 nM.

In the case of `CC(O)c1cccc(CN2C(=O)N(Cc3cccc(Br)c3)C(Cc3ccccc3)C(O)C(O)C2Cc2ccccc2)c1` (stereo not drawn) [Example 9R], in the test on HIV-1 (RF) in MT-2 cells (setting [2]), the IC90 is < 10 µg/mL. Also, the Ki in test [1] (setting [3]) is 10 to 1000 nM.

As for `CC(=O)c1cccc(CN2C(Cc3ccccc3)C(O)C(O)C(Cc3ccccc3)N(Cc3cccc(C(C)=O)c3)S2(=O)=O)c1` (stereo not drawn) [23T], the IC90 result in the test on HIV-1 (RF) in MT-2 cells (Table 2m) is “+++ (+++=<10 μg/mL)”. In addition, the Ki in test [1] (Table 2m, read-out: HPLC Ki) is < 10 nM.

As for `NC(=O)COc1cccc(CN2C(=O)N(Cc3cccc(OCC(N)=O)c3)C(Cc3ccccc3)C(O)C(O)C2Cc2ccccc2)c1` (stereo not drawn) [10H], in the test on HIV-1 (RF) in MT-2 cells (Table 2d, class symbols), the 90% effect concentration (IC90) result was “+++ (+++=<10 μg/mL)”. For the same compound, the Ki in test [1] (setting [6]) is < 10 nM.

On to `O=C(NCCCCCN1C(=O)N(CCCCCNC(=O)Nc2ccccc2)C(Cc2ccccc2)C(O)C(O)C1Cc1ccccc1)Nc1ccccc1` (stereo not drawn) [15ER], for which, in the test on HIV-1 (RF) in MT-2 cells (Table 2d, HIV RNA assay), the 90% effect concentration (IC90) entry is reported as “++/+ (The ++/+ is used in the cases where an IC90 was determined to be >50 μg/mL)”. For the same compound, the Ki in test [1] (setting [7]) lay within 10 to 1000 nM.

Consider `N#Cc1cccc(CN2C(=O)N(Cc3cccc(-c4cc[nH]n4)c3)C(Cc3ccccc3)C(O)C(O)C2Cc2ccccc2)c1` (stereo not drawn) [Example 15BV], for which, in the test with HIV-1 (RF) in MT-2 cells (setting [4]), the IC90 is < 10 µg/mL. Also, the Ki in test [1] (setting [5]) is < 10 nM.

Regarding `CCOC(=O)c1cccc(CN2C(=O)N(CCCCCO)C(Cc3ccccc3)C(O)C(O)C2Cc2ccccc2)c1` (stereo not drawn) [Example 15VY], the IC90 with HIV-1 (RF) in MT-2 cells (setting [2]) was < 10 µg/mL. In addition, in test [1] (setting [3]), the Ki was < 10 nM.

Turning to `O=Cc1ccc(CN2C(=O)N(Cc3ccc(CO)cc3)C(Cc3ccccc3)C(O)C(O)C2Cc2ccccc2)cc1` (stereo not drawn) [15XB], the 90% effect concentration (IC90) in the test with HIV-1 (RF) in MT-2 cells (setting [4]) is < 10 µg/mL. For the same compound, the Ki in test [1] (setting [5]) is < 10 nM.

In the case of `CCNc1n[nH]c2ccc(CN3C(=O)N(Cc4ccc5[nH]nc(NCC)c5c4)C(Cc4ccccc4)C(O)C(O)C3Cc3ccccc3)cc12` (stereo not drawn) [15DJ], the IC90 entry with HIV-1 (RF) in MT-2 cells (Table 2d, HIV RNA assay) is “+++ (+++=<10 μg/mL)”. In addition, in test [1] (setting [7]), the Ki was < 10 nM.

For `O=C1N(CCCCC2CO2)C(Cc2ccccc2)C(O)C(O)C(Cc2ccccc2)N1CCCCC1CO1` (stereo not drawn) [Example 13E], the concentration for an effect of 90% (IC90) in the test on HIV-1 (RF) in MT-2 cells (setting [2]) is < 10 µg/mL. Besides, the Ki in test [1] (setting [3]) is 10 to 1000 nM.

Turning to `O=C1N(Cc2cccc(CO)c2)C(Cc2ccccc2)C(O)C(O)C(Cc2ccccc2)N1Cc1cccc(-c2cc[nH]n2)c1` (stereo not drawn) [Example 15BQ], the IC90 in the test on HIV-1 (RF) in MT-2 cells (setting [4]) was < 10 µg/mL. Besides, the Ki in test [1] (setting [5]) is < 10 nM.

On to `O=S1(=O)N(Cc2ccc3ccccc3c2)C(Cc2ccccc2)C(O)C(O)C(Cc2ccccc2)N1Cc1ccc2ccccc2c1` (stereo not drawn) [23H], for which the 90% effect concentration (IC90) entry in the test on HIV-1 (RF) in MT-2 cells (Table 2m) is listed as “+++ (+++=<10 μg/mL)”. Besides, in test [1] (Table 2m, read-out: HPLC Ki), the Ki is < 10 nM.

As to `NC(=O)c1cc(CN2C(=O)N(Cc3ccc(F)c(C(N)=NO)c3)C(Cc3ccccc3)C(O)C(O)C2Cc2ccccc2)ccc1F` (stereo not drawn) [15EH], the IC90 entry with HIV-1 (RF) in MT-2 cells (Table 2d, HIV RNA assay) is listed as “+++ (+++=<10 μg/mL)”. The Ki in test [1] (setting [7]) was < 10 nM.

Turning to `O=C(NCCN1CCOCC1)c1cccc(CN2C(=O)N(Cc3cccc(C(=O)NCCN4CCOCC4)c3)C(Cc3ccccc3)C(O)C(O)C2Cc2ccccc2)c1` (stereo not drawn) [15XU], the IC90 entry in the test on HIV-1 (RF) in MT-2 cells (Table 2d, HIV RNA assay) is reported as “+++ (+++=<10 μg/mL)”. In addition, in test [1] (setting [7]), the Ki is < 10 nM.

For the compound `O=C1NC(Cc2ccccc2)C(O)C(O)C(Cc2ccccc2)N1CC1CCC(=NO)CC1` (stereo not drawn) [Example 15VC], in the test on HIV-1 (RF) in MT-2 cells (Table 2d, class symbols), the IC90 entry is listed as “++/+ (The ++/+ is used in the cases where an IC90 was determined to be >50 μg/mL)”. In test [1] (setting [6]), the Ki fell in the range of 10 to 1000 nM.

With `[N-]=[N+]=NCCCCCN1C(=O)N(CCCCCN=[N+]=[N-])C(Cc2ccccc2)C(O)C(O)C1Cc1ccccc1` (stereo not drawn) [15EM], the concentration for an effect of 90% (IC90) in the test with HIV-1 (RF) in MT-2 cells (setting [4]) is < 10 µg/mL. In test [1] (setting [5]), the Ki lay within 10 to 1000 nM.

Values taken from patent USRE37781E1, “Substituted cyclic carbonyls and derivatives thereof useful as retroviral protease inhibitors” (DuPont Pharmaceuticals Company, priority 1991, dated 2002).
